Columns and labels:
[1] = (§1) The drug is tested on Z-028 corresponding to mouse gut metagenome with ENA study accession number: PRJEB37062 and ENA sample accession number: ERS12561827 for biotransformation under anaerobic condition. The drug concentrations were measured over 9 timepoints collected between 0 and 24 hours of incubation by liquid-chromatography-coupled mass spectrometry (LC–MS); details: 2 µM
[2] = as §1, with “Z-025” for “Z-028”, “rabbit” for “mouse”, “ERS12561824” for “ERS12561827”; details: 2 µM
[3] = as §1, with “Z-024” for “Z-028”, “pig” for “mouse”, “ERS12561823” for “ERS12561827”; details: 2 µM
[4] = as §1, with “Z-018” for “Z-028”, “pig” for “mouse”, “ERS12561817” for “ERS12561827”; details: 2 µM
[5] = as §1, with “Z-017” for “Z-028”, “ERS12561816” for “ERS12561827”; details: 2 µM
[6] = as §1, with “Z-009” for “Z-028”, “pig” for “mouse”, “ERS12561809” for “ERS12561827”; details: 2 µM
[7] = as §1, with “Z-005” for “Z-028”, “to” for “to mouse gut”, “ERS12561805” for “ERS12561827”; details: 2 µM
[8] = as §1, with “WLS-086” for “Z-028”, “human” for “mouse”, “ERS12561752” for “ERS12561827”; details: 2 µM
[9] = as §1, with “WLS-082” for “Z-028”, “human” for “mouse”, “ERS12561751” for “ERS12561827”; details: 2 µM
[10] = as §1, with “WLS-073” for “Z-028”, “human” for “mouse”, “ERS12561749” for “ERS12561827”; details: 2 µM
[11] = as §1, with “WLS-006” for “Z-028”, “human” for “mouse”, “ERS12561741” for “ERS12561827”; details: 2 µM
[12] = human gut metagenome, 24 h, 2 µM
[13] = human gut metagenome, 24 h, 2 µM; remark: listed apart in the source
[14] = human gut metagenome, 24 h, 2 µM; remark: listed apart in the source
[15] = human gut metagenome, 24 h, 2 µM; remark: listed apart in the source
[16] = human gut metagenome, 24 h, 2 µM; remark: listed apart in the source
[17] = human gut metagenome, 24 h, 2 µM; remark: listed apart in the source
[18] = human gut metagenome, 24 h, 2 µM; remark: listed apart in the source
[19] = human gut metagenome, 24 h, 2 µM; remark: listed apart in the source
[20] = human gut metagenome, 24 h, 2 µM; remark: listed apart in the source
Further: call rule not given here.

Bacterial Biotransformation [1]	Bacterial Biotransformation [2]	Bacterial Biotransformation [3]	Bacterial Biotransformation [4]	Bacterial Biotransformation [5]	Bacterial Biotransformation [6]	Bacterial Biotransformation [7]	Bacterial Biotransformation [8]	Bacterial Biotransformation [9]	Bacterial Biotransformation [10]	Bacterial Biotransformation [11]	Bacterial Biotransformation [12]	Bacterial Biotransformation [13]	Bacterial Biotransformation [14]	Bacterial Biotransformation [15]	Bacterial Biotransformation [16]	Bacterial Biotransformation [17]	Bacterial Biotransformation [18]	Bacterial Biotransformation [19]	Bacterial Biotransformation [20]	Compound
Compound NOT metabolized	Compound NOT metabolized	Compound NOT metabolized	Compound metabolized	Compound NOT metabolized	Compound metabolized	Compound metabolized	Compound metabolized	Compound metabolized	Compound metabolized	Compound metabolized	Compound metabolized	Compound NOT metabolized	Compound NOT metabolized	Compound metabolized	Compound NOT metabolized	Compound NOT metabolized	Compound metabolized	Compound NOT metabolized	Compound metabolized	COc1cc2nc(N3CCN(C(=O)C4CCCO4)CC3)nc(N)c2cc1OC (stereo not given) [TERAZOSIN]
Compound NOT metabolized	Compound NOT metabolized	Compound NOT metabolized	Compound NOT metabolized	Compound NOT metabolized	Compound NOT metabolized	Compound NOT metabolized	Compound metabolized	Compound NOT metabolized	Compound NOT metabolized	Compound NOT metabolized	Compound NOT metabolized	Compound NOT metabolized	Compound NOT metabolized	Compound NOT metabolized	Compound NOT metabolized	Compound NOT metabolized	Compound NOT metabolized	Compound NOT metabolized	Compound NOT metabolized	c1ccc2[nH]c(-c3cscn3)nc2c1 [THIABENDAZOLE]
Compound NOT metabolized	Compound NOT metabolized	Compound NOT metabolized	Compound NOT metabolized	Compound NOT metabolized	Compound NOT metabolized	Compound NOT metabolized	Compound NOT metabolized	Compound NOT metabolized	Compound NOT metabolized	Compound NOT metabolized	Compound NOT metabolized	Compound NOT metabolized	Compound NOT metabolized	Compound metabolized	Compound NOT metabolized	Compound NOT metabolized	Compound metabolized	Compound metabolized	Compound NOT metabolized	CCN(CC)CCNC(=O)c1cc(S(C)(=O)=O)ccc1OC [TIAPRIDE]
Compound NOT metabolized	Compound NOT metabolized	Compound NOT metabolized	Compound NOT metabolized	Compound NOT metabolized	Compound NOT metabolized	Compound NOT metabolized	Compound NOT metabolized	Compound NOT metabolized	Compound NOT metabolized	Compound NOT metabolized	Compound NOT metabolized	Compound NOT metabolized	Compound NOT metabolized	Compound NOT metabolized	Compound NOT metabolized	Compound NOT metabolized	Compound NOT metabolized	Compound NOT metabolized	Compound NOT metabolized	CC(C)(C)NC[C@H](O)COc1nsnc1N1CCOCC1.O=C(O)/C=C\C(=O)O [TIMOLOL MALEATE]
Compound NOT metabolized	Compound NOT metabolized	Compound NOT metabolized	Compound NOT metabolized	Compound NOT metabolized	Compound NOT metabolized	Compound NOT metabolized	Compound NOT metabolized	Compound NOT metabolized	Compound NOT metabolized	Compound NOT metabolized	Compound NOT metabolized	Compound NOT metabolized	Compound NOT metabolized	Compound NOT metabolized	Compound NOT metabolized	Compound NOT metabolized	Compound NOT metabolized	Compound NOT metabolized	Compound NOT metabolized	CC[C@@]1(O)C(=O)OCc2c1cc1n(c2=O)Cc2cc3c(CN(C)C)c(O)ccc3nc2-1 [TOPOTECAN]
Compound NOT metabolized	Compound NOT metabolized	Compound NOT metabolized	Compound NOT metabolized	Compound NOT metabolized	Compound metabolized	Compound NOT metabolized	Compound NOT metabolized	Compound NOT metabolized	Compound NOT metabolized	Compound NOT metabolized	Compound NOT metabolized	Compound NOT metabolized	Compound NOT metabolized	Compound NOT metabolized	Compound NOT metabolized	Compound NOT metabolized	Compound NOT metabolized	Compound NOT metabolized	Compound NOT metabolized	COc1cc(C(=O)NCc2ccc(OCCN(C)C)cc2)cc(OC)c1OC [TRIMETHOBENZAMIDE]

Compound	Bacterial Biotransformation [1]	Bacterial Biotransformation [2]	Bacterial Biotransformation [3]	Bacterial Biotransformation [4]	Bacterial Biotransformation [5]	Bacterial Biotransformation [6]	Bacterial Biotransformation [7]	Bacterial Biotransformation [8]	Bacterial Biotransformation [9]	Bacterial Biotransformation [10]	Bacterial Biotransformation [11]	Bacterial Biotransformation [12]	Bacterial Biotransformation [13]	Bacterial Biotransformation [14]	Bacterial Biotransformation [15]	Bacterial Biotransformation [16]	Bacterial Biotransformation [17]	Bacterial Biotransformation [18]	Bacterial Biotransformation [19]	Bacterial Biotransformation [20]
COc1ccc(C(CN(C)C)C2(O)CCCCC2)cc1 (stereo not given) [VENLAFAXINE]	Compound NOT metabolized	Compound NOT metabolized	Compound NOT metabolized	Compound NOT metabolized	Compound NOT metabolized	Compound NOT metabolized	Compound NOT metabolized	Compound NOT metabolized	Compound NOT metabolized	Compound NOT metabolized	Compound NOT metabolized	Compound NOT metabolized	Compound NOT metabolized	Compound NOT metabolized	Compound NOT metabolized	Compound NOT metabolized	Compound NOT metabolized	Compound NOT metabolized	Compound NOT metabolized	Compound NOT metabolized

From ChEMBL document CHEMBL5724914, “Linking interpersonal differences in gut microbiota composition and drug biotransformation activity” (2024)
